The text below walks through data of patent publication US8846704B2, “Thiopyrimidine-based compounds and uses thereof” (YM Biosciences Austraila Pty Ltd, priority 2007, dated 2014).

Assay [1] has as its target T1, BaF3 TELJAK2 cells (BafT_J2) (Homo sapiens, UniProt O60674).
T1 construct: fused on or other part: TEL (ETV6) N-terminal part, coding nucleotides 1-487, serves as the oligomerising partner; It is fused through a Sal I site to the JAK2 kinase domain and expressed from pTRE2 in BaF3 cells bearing pTET-off; P41212 (Transcription factor ETV6)
The assay is described as follows: Cellular screening, BaF3 TEL:JAK2 cells, Alamar Blue. Format: cell-based. Particulars: 40 hr, read-out: BafT_J2 IC50_nM. In outline:
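Tet-off BaF3 cells carrying a TEL (nt 1-487)–JAK2 kinase-domain fusion, grown factor-independently in DMEM with 10% Tet-approved FBS without WEHI 3B medium. Compounds were diluted to 20 μM in screening plates, and cells (50,000–200,000 cell/mL at 1.1×) were incubated 40 hr at 37 °C, 5% CO2. Alamar Blue was then added for 4-6 hours; read at 544 nm.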
Background: Alamar Blue is a resazurin reagent that responds to reducing activity.

The next assay addresses T2, human JAK2 (Homo sapiens, UniProt O60674).
T2 construct: The kinase domain of human JAK2 was amplified; GST (N); made in house; host or cells: Sf9 insect cells (baculovirus)
As to the kind of experiment: Alphascreen tyrosine kinase enzyme assay, JAK2 kinase domain. It is filed as biochemical. Particulars: read-out: JAK2 IC50_nM. In outline: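 JAK2 kinase domain expressed in baculovirus/Sf9 and glutathione-affinity purified. Compounds (final […]) pre-incubated 20 min with enzyme in 10 mM HEPES pH 7.5, MgCl2, NaCl, vanadate, 0.1% Tween 20.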
Background: Bead proximity is the source of the signal in Alpha formats.

T2 sequence (O60674 849-1124 limits assumed): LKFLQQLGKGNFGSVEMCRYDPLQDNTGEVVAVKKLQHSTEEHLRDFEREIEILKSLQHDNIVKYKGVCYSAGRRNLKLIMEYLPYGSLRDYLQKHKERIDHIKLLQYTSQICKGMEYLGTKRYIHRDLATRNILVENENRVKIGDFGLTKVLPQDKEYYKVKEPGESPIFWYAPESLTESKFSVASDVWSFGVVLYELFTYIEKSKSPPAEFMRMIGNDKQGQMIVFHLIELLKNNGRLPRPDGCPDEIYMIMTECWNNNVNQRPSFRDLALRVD
T1 sequence (O60674 whole entry, change not shown, the tested form may be a part): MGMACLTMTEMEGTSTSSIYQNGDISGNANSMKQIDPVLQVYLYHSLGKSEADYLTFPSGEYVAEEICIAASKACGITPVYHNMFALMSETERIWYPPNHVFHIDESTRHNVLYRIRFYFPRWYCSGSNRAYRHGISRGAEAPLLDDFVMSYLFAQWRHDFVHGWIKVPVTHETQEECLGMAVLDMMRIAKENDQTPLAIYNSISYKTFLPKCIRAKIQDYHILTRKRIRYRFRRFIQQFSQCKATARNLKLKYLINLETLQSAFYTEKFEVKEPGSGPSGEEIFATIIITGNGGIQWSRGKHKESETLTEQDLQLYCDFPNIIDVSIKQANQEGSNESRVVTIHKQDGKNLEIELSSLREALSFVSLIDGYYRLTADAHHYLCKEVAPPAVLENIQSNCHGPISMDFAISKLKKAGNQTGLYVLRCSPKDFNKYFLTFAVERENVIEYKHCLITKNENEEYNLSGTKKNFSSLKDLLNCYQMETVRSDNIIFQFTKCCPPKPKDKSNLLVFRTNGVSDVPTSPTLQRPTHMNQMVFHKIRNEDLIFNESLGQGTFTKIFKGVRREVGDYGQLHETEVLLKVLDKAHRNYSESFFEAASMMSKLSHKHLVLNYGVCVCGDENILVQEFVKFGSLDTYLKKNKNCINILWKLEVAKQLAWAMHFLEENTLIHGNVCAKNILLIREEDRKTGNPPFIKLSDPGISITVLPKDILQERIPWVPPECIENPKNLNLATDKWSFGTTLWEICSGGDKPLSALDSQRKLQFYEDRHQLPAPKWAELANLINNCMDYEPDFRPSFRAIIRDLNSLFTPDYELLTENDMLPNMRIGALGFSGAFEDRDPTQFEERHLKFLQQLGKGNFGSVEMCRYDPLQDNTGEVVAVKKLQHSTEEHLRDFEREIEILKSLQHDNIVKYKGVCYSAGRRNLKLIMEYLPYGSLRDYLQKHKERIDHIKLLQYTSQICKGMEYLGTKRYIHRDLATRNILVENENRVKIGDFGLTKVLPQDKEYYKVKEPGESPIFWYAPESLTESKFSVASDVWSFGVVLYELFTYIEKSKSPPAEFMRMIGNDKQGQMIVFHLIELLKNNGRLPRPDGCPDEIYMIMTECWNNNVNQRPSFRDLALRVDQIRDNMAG

In the case of `C=CC(=O)Nc1ccc(Sc2nc(Nc3ccc(N4CCOCC4)nc3)ncc2C)cc1` [Compound 254, N-(4-(5-methyl-2-(6-morpholinopyridin-3-ylao)pyrimidin-4-ylthio)phenyl)acrylamide], the GI50 in assay [1] was less than 5 µM. The IC50 at human JAK2 is greater than 1000 nM.

Take `Cc1cc(Sc2nc(Nc3ccc(N4CCOCC4)cc3)ncc2C)ccc1N` [Compound 255, 4-(4-ao-3-methylphenylthio)-5-methyl-N-(4-morpholinophenyl)pyrimidin-2-ae]: the GI50 in assay [1] was less than 20 µM. The IC50 at human JAK2 is less than 1000 nM.

In the case of `C=CC(=O)Nc1ccc(Sc2nc(Nc3ccc(N4CCOCC4)cc3)ncc2C)cc1C` [Compound 259], the GI50 in assay [1] was less than 20 µM. The IC50 at human JAK2 was greater than 1000 nM.

`C=CC(=O)Nc1ccc(Sc2nc(Nc3ccc(N4CCOCC4)cc3)ncc2C)cc1CC` [Compound 260, N-(2-ethyl-4-(5-methyl-2-(4-morpholinophenylao)pyrimidin-4-ylthio)phenyl)acrylamide]: the GI50 in assay [1] was greater than 20 µM. Moreover, the IC50 on human JAK2 is greater than 1000 nM.

Consider `C=CC(=O)N(C)c1ccc(Sc2nc(Nc3ccc(N4CCOCC4)cc3)ncc2Br)cc1` [Compound 261, N-(4-(5-bromo-2-(4-morpholinophenylao)pyrimidin-4-ylthio)phenyl)-N-methylacrylamide], for which the GI50 in assay [1] was greater than 20 µM. Further, the IC50 at human JAK2 is less than 500 nM.

Turning to `Cc1cnc(Nc2ccc(N3CCOCC3)cc2)nc1Sc1ccc(N)nc1` [Compound 262, 4-(6-aopyridin-3-ylthio)-5-methyl-N-(4-morpholinophenyl)pyrimidin-2-ae], the GI50 in assay [1] is less than 20 µM. Also, the IC50 at human JAK2 is less than 500 nM.

`Nc1ccc(Sc2nc(Nc3ccc(N4CCOCC4)cc3)ncc2F)cc1` [Compound 263, 4-(4-aophenylthio)-5-fluoro-N-(4-morpholinophenyl)pyrimidin-2-ae]: the GI50 in assay [1] was less than 5 µM. The IC50 on human JAK2 is greater than 1000 nM.

In the case of `Nc1ccc(Sc2nc(Nc3cccc(N4CCOCC4)c3)ncc2I)cc1` [Compound 264, 4-(4-aophenylthio)-5-iodo-N-(3-morpholinophenyl)pyrimidin-2-ae], in assay [1], the GI50 is less than 5 µM. In addition, the IC50 on human JAK2 was greater than 1000 nM.

As for `C=CC(=O)Nc1ccc(Sc2nc(Nc3cccc(N4CCOCC4)c3)ncc2F)cc1` [Compound 267, N-(4-(5-fluoro-2-(3-morpholinophenylao)pyrimidin-4-ylthio)phenyl)acrylamide], the GI50 in assay [1] is less than 5 µM. At human JAK2, the IC50 is greater than 1000 nM.

With `C=CC(=O)Nc1ccc(Sc2nc(Nc3ccc(N4CCOCC4)cc3)ncc2F)cc1` [Compound 268, N-(4-(5-fluoro-2-(4-morpholinophenylao)pyrimidin-4-ylthio)phenyl)acrylamide], the GI50 in assay [1] is greater than 20 µM. Also, on human JAK2, the IC50 is greater than 1000 nM.

As to `C=CC(=O)Nc1ccc(Sc2nc(Nc3cccc(N4CCOCC4)c3)ncc2I)cc1` [Compound 269, N-(4-(5-iodo-2-(3-morpholinophenylao)pyrimidin-4-ylthio)phenyl)acrylamide], the GI50 in assay [1] was less than 20 µM. Also, at human JAK2, the IC50 was greater than 1000 nM.

On to `C=CC(=O)Nc1ccc(Sc2ccnc(Nc3ccc(O)cc3)n2)cc1` [Compound 276, N-(4-(2-(4-hydroxyphenylao)pyrimidin-4-ylthio)phenyl)acrylamide], for which the GI50 in assay [1] was less than 20 µM. Besides, at human JAK2, the IC50 is greater than 1000 nM.

Turning to `C=CC(=O)Nc1ccc(Sc2ccnc(Nc3cccc(O)c3)n2)cc1` [Compound 277, N-(4-(2-(3-hydroxyphenylao)pyrimidin-4-ylthio)phenyl)acrylamide], the GI50 in assay [1] is less than 5 µM. Besides, the IC50 at human JAK2 is greater than 1000 nM.

Regarding `C=CC(=O)Nc1ccc(Sc2ccnc(Nc3cccc(CO)c3)n2)cc1` [Compound 278, N-(4-(2-(3-(hydroxymethyl)phenylao)pyrimidin-4-ylthio)phenyl)acrylamide], the GI50 in assay [1] was less than 5 µM. At human JAK2, the IC50 was greater than 1000 nM.

In the case of `C=CC(=O)Nc1ccc(Sc2nc(Nc3cccc(CO)c3)ncc2C)cc1` [Compound 280, N-(4-(2-(3-(hydroxymethyl)phenylao)-5-methylpyrimidin-4-ylthio)phenyl)acrylamide], the GI50 in assay [1] was less than 20 µM. The IC50 at human JAK2 is greater than 1000 nM.

For `C=CC(=O)Nc1ccc(Sc2nc(Nc3ccc(NS(C)(=O)=O)cc3)ncc2C)cc1` [Compound 285, N-(4-(5-methyl-2-(4-(methylsulfonamido)phenylao)pyrimidin-4-ylthio)phenyl)acrylamide], the GI50 in assay [1] is less than 5 µM. The IC50 at human JAK2 was greater than 1000 nM.

As to `C=CC(=O)Nc1ccc(Sc2nc(Nc3ccc(N4CCC(CO)CC4)cc3)ncc2C)cc1` [Compound 286, N-(4-(2-(4-(4-(hydroxymethyl)piperidin-1-yl)phenylao)-5-methylpyrimidin-4-ylthio)phenyl)acrylamide], the GI50 in assay [1] is greater than 20 µM. The IC50 on human JAK2 was greater than 1000 nM.

Consider `C=CC(=O)Nc1ccc(Sc2nc(Nc3cccc(NS(C)(=O)=O)c3)ncc2C)cc1` [Compound 288, N-(4-(5-methyl-2-(3-(methylsulfonamido)phenylao)pyrimidin-4-ylthio)phenyl)acrylamide], for which the GI50 in assay [1] is less than 20 µM. Moreover, the IC50 on human JAK2 was greater than 1000 nM.

Turning to `C=CC(=O)Nc1ccc(Sc2nc(Nc3ccc(OCCN4CCOCC4)cc3)ncc2C)cc1` [Compound 290, N-(4-(5-methyl-2-(4-(2-morpholinoethoxy)phenylao)pyrimidin-4-ylthio)phenyl)acrylamide], in assay [1], the GI50 is less than 20 µM. For the same molecule, the IC50 at human JAK2 was greater than 1000 nM.

On to `C=CC(=O)Nc1ccc(Sc2nc(Nc3ccc(OCCCN(CC)CC)cc3)ncc2C)cc1` [Compound 291, N-(4-(2-(4-(3-(diethylao)propoxy)phenylao)-5-methylpyrimidin-4-ylthio)phenyl)acrylamide], for which, in assay [1], the GI50 was less than 5 µM. For the same molecule, the IC50 on human JAK2 was greater than 1000 nM.

As for `C=CC(=O)Nc1ccc(Sc2nc(Nc3ccc(OC)c(NS(C)(=O)=O)c3)ncc2C)cc1` [Compound 293, N-(4-(2-(4-methoxy-3-(methylsulfonamido)phenylao)-5-methylpyrimidin-4-ylthio)phenyl)acrylamide], the GI50 in assay [1] was less than 5 µM. In addition, the IC50 at human JAK2 is greater than 1000 nM.

For the molecule `C=CC(=O)Nc1ccc(Sc2nc(Nc3ccc(N4CCC(O)C4)cc3)ncc2C)cc1` (centres unmarked) [Compound 295, N-(4-(2-(4-(3-hydroxypyrrolidin-1-yl)phenylao)-5-methylpyrimidin-4-ylthio)phenyl)acrylamide], the GI50 in assay [1] was greater than 20 µM. Also, the IC50 on human JAK2 is greater than 1000 nM.

In the case of `C=CC(=O)Nc1ccc(Sc2nc(Nc3ccc(NS(C)(=O)=O)c(OC)c3)ncc2C)cc1` [Compound 296, N-(4-(2-(3-methoxy-4-(methylsulfonamido)phenylao)-5-methylpyrimidin-4-ylthio)phenyl)acrylamide], the GI50 in assay [1] was less than 5 µM. The IC50 at human JAK2 was greater than 1000 nM.

On to `C=CC(=O)Nc1ccc(Sc2nc(Nc3ccc(N4CCCC(O)C4)cc3)ncc2C)cc1` (centres unmarked) [Compound 299, N-(4-(2-(4-(3-hydroxypiperidin-1-yl)phenylao)-5-methylpyrimidin-4-ylthio)phenyl)acrylamide], for which the GI50 in assay [1] was less than 20 µM. Moreover, the IC50 on human JAK2 was greater than 1000 nM.

Take `C=CC(=O)Nc1ccc(Sc2nc(Nc3ccc(N4CCOCC4)cc3)ncc2Br)cc1` [Compound 306, N-(4-(5-bromo-2-(4-morpholinophenylao)pyrimidin-4-ylthio)phenyl)acrylamide]: the GI50 in assay [1] was greater than 20 µM. Moreover, at human JAK2, the IC50 was greater than 1000 nM.

Turning to `O=C(/C=C/Cl)Nc1cccc(Sc2ccnc(Nc3ccc(N4CCOCC4)cc3)n2)c1` [Compound 340, (E)-3-chloro-N-(3-(2-(4-morpholinophenylao)pyrimidin-4-ylthio)phenyl)acrylamide], in assay [1], the GI50 was less than 20 µM. Further, the IC50 on human JAK2 was greater than 1000 nM.

Take `O=C(/C=C\Cl)Nc1ccc(Sc2ccnc(Nc3ccc(N4CCOCC4)cc3)n2)cc1` [Compound 346, (Z)-3-chloro-N-(4-(2-(4-morpholinophenylao)pyrimidin-4-ylthio)phenyl)acrylamide]: the GI50 in assay [1] was less than 1 µM. Moreover, at human JAK2, the IC50 is greater than 1000 nM.

In the case of `C=CC(=O)Nc1ccc(Sc2ccnc(Nc3ccc(S(N)(=O)=O)c(OC)c3)n2)cc1` [Compound 374, N-(4-(2-(3-methoxy-4-sulfamoylphenylao)pyrimidin-4-ylthio)phenyl)acrylamide], in assay [1], the GI50 was less than 5 µM. For the same molecule, the IC50 at human JAK2 was greater than 1000 nM.

With `Cc1cnc(Nc2ccc(N3CCOCC3)cc2)nc1Sc1ccc(NC(=O)/C=C\C(=O)O)cc1` [Compound 380, (Z)-4-(4-(5-methyl-2-(4-morpholinophenylao)pyrimidin-4-ylthio)phenylao)-4-oxobut-2-enoic acid], the GI50 in assay [1] was greater than 20 µM. Further, the IC50 at human JAK2 is greater than 1000 nM.

Turning to `Cc1cnc(Nc2ccc(N3CCOCC3)cc2)nc1Sc1ccc(N2C(=O)C=C(Br)C2=O)cc1` [Compound 382, 3-bromo-1-(4-(5-methyl-2-(4-morpholinophenylao)pyrimidin-4-ylthio)phenyl)-1H-pyrrole-2,5-dione], the GI50 in assay [1] is less than 20 µM. In addition, at human JAK2, the IC50 was greater than 1000 nM.

For `CCOC(=O)/C=C/C(=O)Nc1ccc(Sc2nc(Nc3ccc(N4CCOCC4)cc3)ncc2C)cc1` [Compound 385, (E)-ethyl 4-(4-(5-methyl-2-(4-morpholinophenylao)pyrimidin-4-ylthio)phenylao)-4-oxobut-2-enoate], in assay [1], the GI50 was greater than 20 µM. Besides, the IC50 on human JAK2 was greater than 1000 nM.
